The values below come from US20050208463A1, “Method of screening drug” (priority 2001, published 2005).

Assay [1] relates to Lrp-like protein. The assay is described as follows: Gel filtration analysis of changes in assemblies of the Lrp-like protein on mixing with potential ligands. In kind it is biochemical, Pyrococcus sp. OT3. The following applies: for change in gel filtration profile of the Lrp-like protein (peak increased): protein monomer approximately 100 μM, at least 30 minutes at room temperature, UV 220 nm. How it is done: Possible changes in assemblies of the Lrp-like protein induced by interaction with amino acids and metabolic intermediates were analyzed in solution using gel filtration.
Gel filtration was carried out with the flow rate […], using a matrix (Protein Pak 125, 7.8×300 mm, Waters) and 50 mM Tris-HCl buffer (pH 7.0) containing 300 mM sodium chloride. Flow of the proteins was monitored by measuring the UV absorbance at 220 nm (LC Module I plus system, Waters). The Lrp-like protein purified by method 2, i.e., the rigorous method, were dissolved in 50 mM Tris-HCl buffer (pH 7.0) containing 200 mM sodium chloride, and kept at −80° C. until it was diluted by 10-fold with 50 mM Tris-HCl buffer (pH 7.0) containing 300 mM sodium chloride, and mixed with each potential ligand for at least 30 minutes at room temperature (about 25° C.). In the mixture, the monomer concentration of the Lrp-like protein was approximately 100 μM.
On the technique in general: In gel filtration, larger molecules generally elute earlier.

Assay [2] has as its system Lrp-like protein. The assay is described as follows: Depolarization of crystals of the Lrp-like protein soaked in amino acid solutions. In kind it is binding, Pyrococcus sp. OT3. The following applies: crystals soaked in 10 mM amino acid; several hours. As for the experimental part: It has been known that the regularity inside a crystal might be affected, if the structure of the protein changes upon interaction with a ligand which is incorporated from outside the crystal, thereby depolarizing the crystal. Thus, crystals of the Lrp-like protein were soaked into solutions, each containing one of twenty amino acids at the same concentration 10 mM.

`O=C(O)C(O)COP(=O)(O)O` (centres unmarked) [3-phosphoglyceric acid]: in assay [1] (metabolic intermediate 10 mM), the “change in gel filtration profile of the Lrp-like protein (peak increased)” value (from here on “change … (peak increased)”) is given as “no significant effect was observed”.

As to `C[C@H](N)C(=O)O` [alanine], in assay [1] (amino acid 1 mM), the “effect on assembling of the Lrp-like protein concluded from gel filtration” value (“effect on assembling” for short) is given as “accelerate disassembling of the protein” and the “change … (peak increased)” value was “increasing the fourth peak”.

Take `N=C(N)NCCC[C@H](N)C(=O)O` [arginine]: in assay [1] (amino acid 1 mM), the “effect on assembling” value is “accelerate disassembling of the protein” and the “change … (peak increased)” value is listed as “increasing the fourth peak”.

For `CC[C@H](C)[C@H](N)C(=O)O` [isoleucine], the “depolarization of crystals of the Lrp-like protein” value (“depolarization” below) in assay [2] was “depolarized”. In assay [1] (amino acid 1 mM), the “effect on assembling” value is given as “accelerates assembling of the protein” and the “change … (peak increased)” value was “increasing the second peak”.

`CC(C)C[C@H](N)C(=O)O` [leucine]: the “depolarization” value in assay [2] is on record as “depolarized”. For the same compound, in assay [1] (amino acid 1 mM), the “effect on assembling” value is “accelerate disassembling of the protein” and the “change … (peak increased)” value is “increasing the fourth peak”.

As to `O=C(O)CC(O)C(=O)O` (centres unmarked) [malic acid], in assay [1] (metabolic intermediate 10 mM), the “effect on assembling” value was “intermediate effects” and the “change … (peak increased)” value is recorded as “the third peak increased”.

With `CSCC[C@H](N)C(=O)O` [methionine], the “depolarization” value in assay [2] was “depolarized”. Moreover, in assay [1] (amino acid 1 mM), the “effect on assembling” value is on record as “accelerate disassembling of the protein” and the “change … (peak increased)” value is listed as “increasing the fourth peak”.

On to `O=C(O)CC(=O)C(=O)O` [oxaloacetic acid], for which, in assay [1] (metabolic intermediate 10 mM), the “effect on assembling” value is recorded as “intermediate effects” and the “change … (peak increased)” value was “the third peak increased”.

Consider `N[C@@H](Cc1ccccc1)C(=O)O` [phenylalanine], for which, in assay [1] (amino acid 1 mM), the “effect on assembling” value is “accelerate disassembling of the protein” and the “change … (peak increased)” value is on record as “increasing the fourth peak”.

With `CC(=O)C(=O)O` [pyruvic acid], the “change … (peak increased)” value in assay [1] (metabolic intermediate 10 mM) is on record as “no significant effect was observed”.

Take `C[C@@H](O)[C@H](N)C(=O)O` [threonine]: in assay [1] (amino acid 1 mM), the “effect on assembling” value is “accelerate disassembling of the protein” and the “change … (peak increased)” value is on record as “increasing the fourth peak”.

For the compound `CC(C)[C@H](N)C(=O)O` [valine], the “depolarization” value in assay [2] was “depolarized”. In assay [1] (amino acid 1 mM), the “effect on assembling” value was “intermediate effects” and the “change … (peak increased)” value is on record as “the third peak increased”.
